The supplement of paper PMC10307832

Tests used:
Test in all cases: relative viability (nuclei count vs DMSO), 5 days (fraction); higher = more cells survive
[1] = compound: CC1CC(=O)N(C2=CN=C(N=C2N1C3CCCC3)NC4=C(C=C(C=C4)C(=O)NC5CCN(CC5)C)OC)C [NPK76-II-72-1] + CS(=O)(=O)CCNCc1ccc(-c2ccc3ncnc(Nc4ccc(OCc5cccc(F)c5)c(Cl)c4)c3c2)o1 [Lapatinib] (partner 2 µM)
In short: (§1)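 Medians of duplicate plates are given as relative viability. That measure is the nuclei count in treated wells divided by the count in vehicle wells. Counts were taken on 4× images of lung cancer cell lines in 1536-well plates, 5 days after pin-tool dosing the day after seeding with one drug alone or a fixed anchor-drug dose plus five library-drug doses (not always all listed) in √10 steps.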

BI-2536 + Lapatinib = compound: CC[C@@H]1C(=O)N(C)c2cnc(Nc3ccc(C(=O)NC4CCN(C)CC4)cc3OC)nc2N1C1CCCC1 [BI-2536] + CS(=O)(=O)CCNCc1ccc(-c2ccc3ncnc(Nc4ccc(OCc5cccc(F)c5)c(Cl)c4)c3c2)o1 [Lapatinib] (partner 2 µM)
In short: as §1

BI-2536 + Alpelisib = compound: CC[C@@H]1C(=O)N(C)c2cnc(Nc3ccc(C(=O)NC4CCN(C)CC4)cc3OC)nc2N1C1CCCC1 [BI-2536] + Cc1nc(NC(=O)N2CCC[C@H]2C(N)=O)sc1-c1ccnc(C(C)(C)C(F)(F)F)c1 [Alpelisib] (partner 2 µM)
In short: as §1

[2] = compound: CC1CC(=O)N(C2=CN=C(N=C2N1C3CCCC3)NC4=C(C=C(C=C4)C(=O)NC5CCN(CC5)C)OC)C [NPK76-II-72-1] + CS(=O)(=O)N1CCN(Cc2cc3nc(-c4cccc5[nH]ncc45)nc(N4CCOCC4)c3s2)CC1 [Pictilisib] (partner 1 µM)
In short: as §1

NCI-H2126 showed a relative viability ([1]; first compound 0.01 µM) of 0.686, a relative viability ([1]; first compound 0.03162 µM) of 0.806 and a relative viability ([1]; first compound 0.1 µM) of 0.755. The relative viability ([1]; first compound 0.3162 µM) was 0.733, the relative viability ([1]; first compound 1 µM) was 0.823 and the relative viability (BI-2536 + Lapatinib; first compound 0.01 µM) was 0.782. For the same cell line, the relative viability (BI-2536 + Lapatinib; first compound 0.03162 µM) was 0.689, the relative viability (BI-2536 + Lapatinib; first compound 0.1 µM) was 0.725 and the relative viability (BI-2536 + Lapatinib; first compound 0.3162 µM) was 0.619. The relative viability (BI-2536 + Lapatinib; first compound 1 µM) was 0.267, the relative viability (BI-2536 + Alpelisib; first compound 0.01 µM) was 0.739 and the relative viability (BI-2536 + Alpelisib; first compound 0.03162 µM) was 0.731. The relative viability (BI-2536 + Alpelisib; first compound 0.1 µM) was 0.62, the relative viability (BI-2536 + Alpelisib; first compound 0.3162 µM) was 0.269 and the relative viability (BI-2536 + Alpelisib; first compound 1 µM) was 0.237. For the same cell line, the relative viability ([2]; first compound 0.01 µM) was 0.508, the relative viability ([2]; first compound 0.03162 µM) was 0.517 and the relative viability ([2]; first compound 0.1 µM) was 0.457. For the same cell line, the relative viability ([2]; first compound 0.3162 µM) was 0.507 and the relative viability ([2]; first compound 1 µM) was 0.476.
HOP-62 was tested, and the relative viability ([1]; first compound 0.01 µM) was 1.08, the relative viability ([1]; first compound 0.03162 µM) was 0.958 and the relative viability ([1]; first compound 0.1 µM) was 1.02. The relative viability ([1]; first compound 0.3162 µM) was 0.911, the relative viability ([1]; first compound 1 µM) was 1.22 and the relative viability (BI-2536 + Lapatinib; first compound 0.01 µM) was 0.965. It also gave a relative viability (BI-2536 + Lapatinib; first compound 0.03162 µM) of 0.99, a relative viability (BI-2536 + Lapatinib; first compound 0.1 µM) of 0.705 and a relative viability (BI-2536 + Lapatinib; first compound 0.3162 µM) of 0.142. The relative viability (BI-2536 + Lapatinib; first compound 1 µM) was 0.135, the relative viability (BI-2536 + Alpelisib; first compound 0.01 µM) was 1.04 and the relative viability (BI-2536 + Alpelisib; first compound 0.03162 µM) was 1.06. The relative viability (BI-2536 + Alpelisib; first compound 0.1 µM) was 0.922, the relative viability (BI-2536 + Alpelisib; first compound 0.3162 µM) was 0.176 and the relative viability (BI-2536 + Alpelisib; first compound 1 µM) was 0.104. It also gave a relative viability ([2]; first compound 0.01 µM) of 0.606, a relative viability ([2]; first compound 0.03162 µM) of 0.766 and a relative viability ([2]; first compound 0.1 µM) of 0.778. For the same cell line, the relative viability ([2]; first compound 0.3162 µM) was 0.696 and the relative viability ([2]; first compound 1 µM) was 0.613.
CAL-12T gave a relative viability ([1]; first compound 0.01 µM) of 0.571, a relative viability ([1]; first compound 0.03162 µM) of 0.749 and a relative viability ([1]; first compound 0.1 µM) of 0.632. The relative viability ([1]; first compound 1 µM) was 0.777, the relative viability (BI-2536 + Lapatinib; first compound 0.01 µM) was 0.646 and the relative viability (BI-2536 + Lapatinib; first compound 0.03162 µM) was 0.799. The relative viability (BI-2536 + Lapatinib; first compound 0.1 µM) was 0.582, the relative viability (BI-2536 + Lapatinib; first compound 0.3162 µM) was 0.186 and the relative viability (BI-2536 + Lapatinib; first compound 1 µM) was 0.177. For the same cell line, the relative viability (BI-2536 + Alpelisib; first compound 0.01 µM) was 1.13, the relative viability (BI-2536 + Alpelisib; first compound 0.03162 µM) was 1.07 and the relative viability (BI-2536 + Alpelisib; first compound 0.1 µM) was 1.08. For the same cell line, the relative viability (BI-2536 + Alpelisib; first compound 0.3162 µM) was 0.173, the relative viability (BI-2536 + Alpelisib; first compound 1 µM) was 0.141 and the relative viability ([2]; first compound 0.01 µM) was 0.448. It also gave a relative viability ([2]; first compound 0.03162 µM) of 0.39, a relative viability ([2]; first compound 0.1 µM) of 0.42 and a relative viability ([2]; first compound 1 µM) of 0.453.
With NCI-H520 the relative viability ([1]; first compound 0.01 µM) was 0.735, the relative viability ([1]; first compound 0.03162 µM) was 0.85 and the relative viability ([1]; first compound 0.1 µM) was 0.912. It also gave a relative viability ([1]; first compound 0.3162 µM) of 0.857, a relative viability ([1]; first compound 1 µM) of 0.841 and a relative viability (BI-2536 + Lapatinib; first compound 0.01 µM) of 0.686. For the same cell line, the relative viability (BI-2536 + Lapatinib; first compound 0.03162 µM) was 0.471, the relative viability (BI-2536 + Lapatinib; first compound 0.1 µM) was 0.154 and the relative viability (BI-2536 + Lapatinib; first compound 0.3162 µM) was 0.193. For the same cell line, the relative viability (BI-2536 + Lapatinib; first compound 1 µM) was 0.164, the relative viability (BI-2536 + Alpelisib; first compound 0.01 µM) was 0.833 and the relative viability (BI-2536 + Alpelisib; first compound 0.03162 µM) was 0.828. It also gave a relative viability (BI-2536 + Alpelisib; first compound 0.1 µM) of 0.315, a relative viability (BI-2536 + Alpelisib; first compound 0.3162 µM) of 0.201 and a relative viability (BI-2536 + Alpelisib; first compound 1 µM) of 0.154. The relative viability ([2]; first compound 0.01 µM) was 0.234, the relative viability ([2]; first compound 0.03162 µM) was 0.267 and the relative viability ([2]; first compound 0.1 µM) was 0.374. It also gave a relative viability ([2]; first compound 0.3162 µM) of 0.267 and a relative viability ([2]; first compound 1 µM) of 0.291.
